Data published in patent US7091243B2, “Anti-irritants” (Croda, Inc., priority 2001, dated 2006).

What was measured:
[1] = tested on: MDCK (Kidney, Canine) strain NBL-2 cells; test: Trans-Epithelial Permeability (TEP) Assay, intracellular leakage of sodium fluorescein; type: cell-based; settings: for anti-irritating activity: 3% ester in shampoo base, Table 7; for anti-irritating activity, comparison between esters: referring to Table 4, 5% ester
From the text: The test methodology for measuring the irritation potential of alkoxylated esters is Trans-Epithelial Permeability (TEP) Assay. The TEP Assay measures intracellular leakage of a suitable marker reagent, such as sodium fluorescein, through cells that were exposed to irritant-containing compositions. Smaller leakage indicates lower degree of cell damage. If the cells are exposed to an irritant-containing composition with and without an anti-irritant, the magnitude of reduction in the intracellular leakage measures the anti-irritating ability of the anti-irritant. For additional discussion of the TEP Assay, see Tchao, R., Trans-Epithelial Permeability of Fluorescein In Vitro As An Assay To Determine Eye Irritants, Progress in In Vitro Toxicology, A M Goldberg ed., 6:271–283 (1988); Drewitt-Barlow, B., McPherson, J., Broyd, J. and Williamson, 2000. No Tears for Baby. Global Cosmetic Industry, (October, 2000): 16–20; Burke, J. and Joseph, L. B., 2000, In Vitro Analysis of the Irritation Mitigating Properties of PEG-150 Pentaerythrityl Tetrastearate, Society of Cosmetic Chemists, 2000 Technology Showcase, NY, N.Y., all of which are incorporated by reference herein.
The ingredients were dissolved in distilled water and pH was adjusted to 6.8 to 7.2. Sodium laurel ether sulfate (triethoxylated) is a known irritant. The irritation potentials of the compositions I, II, III and IV were measured using the TEP assay as follows.
MDCK (Kidney, Canine) strain NBL-2 purchased from American Type Culture Collection (CCL 34) were cultured under standard conditions. Three days prior to experimentation the cells were subcultured onto Corning 6.5 mm Transwell porous cell culture inserts at 1×10^5 cells per insert. Cells are grown to confluence in 3 days. The inserts were washed 5 times with phosphate buffered saline (PBS) immediately before testing. All reagents were made prior to experimentation, with the exception of the final dilutions with a saline solution, which were prepared on the day of the experiment.
The compositions I, II, III, and IV were diluted to 1:50 and 1:100 with Hanks Buffered Saline Solution (HBSS). For example, to prepare a 1:50 dilution of the test composition I, 1 part of the test composition I was mixed with 49 parts of HBSS. The diluted samples were placed on the ventral side of the insert (in duplicate) in direct contact with the cells for 15 minutes. Two inserts with HBSS were used as the negative control and inserts without cells were used as references of 100% leakage. After application of the test article, the inserts were washed with large amounts of PBS.
Sodium fluorescein was added directly to the cell monolayer and 1 ml of HBSS was placed in the well below. After 30 minutes of incubation at room temperature triplicate 200 μl samples were removed from the well and the optical density (OD) of the well fluid was determined. The experimental OD was then compared to the OD of 100% leakage reference (filter without cells), and provided a measure of irritation potential of the tested compositions.
The reductions in the irritation potential were calculated as the percentage of the absolute reduction relative to the control formulation (control is taken as 100%, and the percentages of reduction are calculated as 100% minus (observed leakage)/(observed leakage of control)×100%).

[2] = tested on: Epiocular™ Tissue Model (OCL-200); test: Epiocular Tissue Model (OCL-200) cell survival, MTT readout; type: cell-based; settings: 5% ester added to 10% SLS in PBS
Procedure: The following example illustrates the discovery of the anti-irritation activity of certain alkoxylated esters. A test composition A and a control composition B were prepared. The test composition A contained 5% of Di-PPG-3-PEG-4 Myristyl Ether Adipate, an alkoxylated (tripropoxy-tetraethoxy) diester of tripropoxy-tetraethoxy myristyl alcohol and adipic acid, and 10% of sodium laurel sulfate (SLS), a known irritant, in Phosphate Buffered Saline (PBS) at pH 6.8–7.2. The control composition B contained 10% SLS in PBS at the same pH without the alkoxylated ester. A separate solution of PBS (without SLS and the ester) was used as a negative control solution. The testing was carried out on Epiocular™, Tissue Model (OCL-200), from MatTek Corporation. Epiocular™ inserts were equilibrated overnight in assay media. Test composition A and B, and the negative control solution were then separately placed in direct contact with the cells. For each test substance, the progress of cell death was measured at 1, 5, and 10 minutes. The negative control inserts were exposed to phosphate buffered saline (PBS) for 10 minutes. The inserts were washed with PBS, equilibrated in Eagle's Minimal Essential Medium (EMEM) prior to incubation in MTT (3-[4,5-Dimethylthiazol-2-yl]-2,5-diphenyltetrazolium bromide), and extracted in isopropyl alcohol overnight. […]

| Substance | anti-irritating activity [1] | anti-irritating activity, comparison between esters [1] | effect on cell death [2] | reduction in the irritation potential of the shampoo ([1]; 5% ester in J&J Baby Shampoo, Table 9) |
| --- | --- | --- | --- | --- |
| Di-PPG-2-PEG-10 Myristyl Adipate | show anti-irritating activity | greater anti-irritating activity than Di-PPG-2-PEG-10 Lauryl Adipate | – | – |
| Di-PPG-2-PEG-10 Steareth Ether Adipate [Di-PPG-2-PEG-10 Steareth Adipate] | – | greater anti-irritating activity than Di-PPG-2-PEG-10 Myristyl Adipate | – | – |
| Di-PPG-3-PEG-4 Cetyl Ether Adipate | show anti-irritating activity, with the magnitude of activity being substantially greater | – | – | – |
| Di-PPG-3-PEG-4 Myristyl Ether Adipate | – | – | substantially reduces cell death | dramatic reduction in the irritation potential |
